Numbering of substitutions follows the chain as printed.

Assay [1] has as its target T1, GLP-2R N247^ECL1A (Homo sapiens, UniProt O95838, N247A).
T1 sequence (O95838 1-553 N247A): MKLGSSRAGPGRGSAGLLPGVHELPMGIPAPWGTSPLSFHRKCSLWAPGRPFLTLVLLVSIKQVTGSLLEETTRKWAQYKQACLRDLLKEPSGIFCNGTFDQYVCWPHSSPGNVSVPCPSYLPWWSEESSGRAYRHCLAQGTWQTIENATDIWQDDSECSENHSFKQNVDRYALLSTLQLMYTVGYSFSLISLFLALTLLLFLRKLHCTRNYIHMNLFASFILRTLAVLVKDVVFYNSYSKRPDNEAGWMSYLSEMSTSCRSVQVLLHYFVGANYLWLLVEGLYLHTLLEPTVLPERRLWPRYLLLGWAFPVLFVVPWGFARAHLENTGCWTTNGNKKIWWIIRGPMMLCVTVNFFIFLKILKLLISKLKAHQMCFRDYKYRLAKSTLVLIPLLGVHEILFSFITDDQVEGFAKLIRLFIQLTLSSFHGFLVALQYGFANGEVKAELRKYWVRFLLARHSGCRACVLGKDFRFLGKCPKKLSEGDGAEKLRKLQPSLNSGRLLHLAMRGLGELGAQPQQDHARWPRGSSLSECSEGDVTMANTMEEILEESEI
As to the kind of experiment: radioligand competition binding, N247^ECL1A. The arrangement: WT (1–553); expressed in transfected cells. Conditions: COS-7, N247^ECL1A; [^125I]GLP-2(1–33, M10Y) 10–15 pM, 4 h, 4 °C; mean ± SEM, n ≥ 3 in duplicate. Here is the method: (§1) A stepwise oxidation reaction was performed by addition of 6 aliquots of 5 µL ChloramineT (30 µL/mL) with a 1-min interval during constant stirring. The reaction was terminated by the addition of 400 µL phase A (0.1% trifluoracetic acid) before being fractionated into 1 mL volume by reverse-phase high-performance liquid chromatography (RP-HPLC, Waters 600 SimiPrep system) on a C18 column. The iodinated protein was […] by increasing concentrations of phase B (Acetonitrile + 0.1% TFA) and tested for competitive binding ability.
(§2) One day before transfection, the COS-7 cells were seeded in 75 cm^2 culture flasks (3 million cells/flask) in DMEM, containing 3.9 g/L NaHCO3 and supplemented with 10% FBS, 1% L-glutamine, 180 units/mL penicillin and 45 µg/mL streptomycin. After an overnight culture at 37 °C, 10% CO2 and 95% air humidity, the cells were transiently transfected with different GLP-2R constructs or pcDNA3.1 vector as previously described.[52] Following 24-h incubation, the cells were transferred to Costa® microtiter plates (150,000 cells/well, PerkinElmer) to achieve a 5%–10% specific binding. […] The cells were then washed twice in binding buffer (4 °C), lysed and counted for radioactivity using a Wallac Gamma Counter (PerkinElmer).

The target in assay [2] is T2, GLP-2R N334^ECL2A (Homo sapiens, UniProt O95838, N334A).
T2 sequence (O95838 1-553 N334A): T1 sequence (O95838 1-553 N247A) with A247N, N334A
As to the kind of experiment: radioligand competition binding, N334^ECL2A. Also noted: WT (1–553); expressed in transfected cells; host or cells: COS-7. Conditions: COS-7, N334^ECL2 A; [^125I]GLP-2(1–33, M10Y) 10–15 pM, 4 h, 4 °C; mean ± SEM, n ≥ 3 in duplicate. As for the experimental part:
as §1, §2

Assay [3] addresses T3, GLP-2R D244^ECL1A (Homo sapiens, UniProt O95838, D244A).
T3 sequence (O95838 1-553 D244A): T1 sequence (O95838 1-553 N247A) with D244A, A247N
The assay is described as follows: radioligand competition binding, D244^ECL1A. Also noted: WT (1–553); expressed in transfected cells. Conditions: COS-7, D244^ECL1A; [^125I]GLP-2(1–33, M10Y) 10–15 pM, 4 h, 4 °C; mean ± SEM, n ≥ 3 in duplicate. Here is the method:
as §1, §2

On to `CC[C@H](C)[C@H](NC(=O)[C@H](Cc1ccccc1)NC(=O)[C@H](CC(=O)O)NC(=O)[C@H](CCCNC(=N)N)NC(=O)[C@H](C)NC(=O)[C@H](C)NC(=O)[C@H](CC(C)C)NC(=O)[C@H](CC(N)=O)NC(=O)[C@H](CC(=O)O)NC(=O)[C@H](CC(C)C)NC(=O)[C@@H](NC(=O)[C@@H](NC(=O)[C@H](CC(N)=O)NC(=O)[C@H](CCSC)NC(=O)[C@H](CCC(=O)O)NC(=O)[C@H](CC(=O)O)NC(=O)[C@H](CO)NC(=O)[C@H](Cc1ccccc1)NC(=O)[C@H](CO)NC(=O)CNC(=O)[C@H](CC(=O)O)NC(=O)[C@H](C)NC(=O)[C@@H](N)Cc1c[nH]cn1)[C@@H](C)O)[C@@H](C)CC)C(=O)N[C@@H](CC(N)=O)C(=O)N[C@@H](Cc1c[nH]c2ccccc12)C(=O)N[C@@H](CC(C)C)C(=O)N[C@H](C(=O)N[C@@H](CCC(N)=O)C(=O)N[C@H](C(=O)N[C@@H](CCCCN)C(=O)N[C@H](C(=O)N[C@H](C(=O)N[C@@H](CC(=O)O)C(=O)O)[C@@H](C)O)[C@@H](C)CC)[C@@H](C)O)[C@@H](C)CC` [Human GLP-2 (1–33)], for which the “% Binding of WT” value in assay [1] was 130.7 ± 4.5 %; in assay [2], 2.4 ± 1.3 %; in assay [3] it was 69.1 ± 4.9 %.
On to `CC[C@H](C)[C@H](NC(=O)[C@H](Cc1ccccc1)NC(=O)[C@H](CC(=O)O)NC(=O)[C@H](CCCNC(=N)N)NC(=O)[C@H](C)NC(=O)[C@H](C)NC(=O)[C@H](CC(C)C)NC(=O)[C@H](CC(N)=O)NC(=O)[C@H](CC(=O)O)NC(=O)[C@H](CC(C)C)NC(=O)[C@@H](NC(=O)[C@@H](NC(=O)[C@H](CC(N)=O)NC(=O)[C@H](CCSC)NC(=O)[C@H](CCC(=O)O)NC(=O)[C@H](CC(=O)O)NC(=O)[C@H](CO)NC(=O)[C@H](Cc1ccccc1)NC(=O)[C@H](CO)NC(=O)CNC(=O)[C@H](CC(=O)O)NC(=O)CNC(=O)[C@@H](N)Cc1c[nH]cn1)[C@@H](C)O)[C@@H](C)CC)C(=O)N[C@@H](CC(N)=O)C(=O)N[C@@H](Cc1c[nH]c2ccccc12)C(=O)N[C@@H](CC(C)C)C(=O)N[C@H](C(=O)N[C@@H](CCC(N)=O)C(=O)N[C@H](C(=O)N[C@@H](CCCCN)C(=O)N[C@H](C(=O)N[C@H](C(=O)N[C@@H](CC(=O)O)C(=O)O)[C@@H](C)O)[C@@H](C)CC)[C@@H](C)O)[C@@H](C)CC` [Teduglutide], for which the results for the “% Binding of WT” value in assay [1], in assay [2] and in assay [3] were 135.2 ± 4.4 %, 2.0 ± 2.1 % and 77.5 ± 5.7 %, respectively.

For the origin of these results see PMC7785020, “A unique hormonal recognition feature of the human glucagon-like peptide-2 receptor” (Cell Research, 2020).
